Assay results: PMC9728284, “Inhibition of Herpes Simplex Viruses, Types 1 and 2, by Ginsenoside 20(S)-Rg3” (Journal of Microbiology and Biotechnology, 2019)
Several values for one entry are separate records, joined by “and”; a condition that tells them apart may be missing. Equal values may be shown once.

Legend:
HSV-1 [1] = experiment: HSV-1 inhibition in Vero cells (PrestoBlue, compound and virus added simultaneously); type: cell-based, Herpes simplex virus type 1 (MacIntyre strain); settings: for IC50: Human alphaherpesvirus 1, two-fold dilutions, linear regression, Vero cells, read-out: IC50 against HSV-1
Description: (§1) Herpes simplex virus type 1 (HSV-1, MacIntyre strain, ATCC, VR-539) or herpes simplex virus type 2 (HSV-2, ATCC, VR-734) were used in these studies. Virus titer was determined by plaque assay. Briefly, following 2 h adsorption of various virus dilutions onto a Vero cell monolayer in a 24-well plate, the medium was removed and cells were overlaid with 1.5% carboxymethylcellulose (Sigma) and incubated 48 h at 37°C with 5% CO2. After incubation, cells were fixed with methanol, stained with Giemsa (Sigma) and plaques were counted. Each virus dilution was prepared in quadruplicate.
(§2) All ginsenosides, isomers, and protopanaxadiols were evaluated for toxic effects on Vero cells prior to anti-viral testing. Cells were seeded at 5,000 cells/well in a black 96-well plate with clear bottom in a volume of 100 µl and allowed to attach for 24 h. The P. ginseng compounds were prepared in DMSO at 100 µM and were taken through serial two-fold dilutions to determine the concentration when the rate of cell death was less than 10%compared to control, untreated cells. Each dilution was tested in three wells and all assays were repeated three times. Following 48 h incubation at 37°C in 5% CO2, 11 µl of PrestoBlue (Invitrogen) was added to each well and the plate was incubated for an additional 30 min. PrestoBlue determines cell viability by changing from blue to red as resazurin is reduced to resorufin by viable cells. Following the PrestoBlue incubation, fluorescence was determined by spectrophotometric reading using Soft Max Pro (Molecular Diagnostics, USA).
(§3) For cytotoxicity testing, 4 µl of dilutions of the ginsenosides or protopanaxadiols were added to 396 µl of medium 199 and 100 µl of this mixture was added to each of three wells. For anti-viral testing, 4 µl of the non-toxic reagent and 4 µl of HSV-1 or HSV-2 diluted to an MOI of 0.1 were added to 392 µl of medium 199 and 100 µl of this was added to each of three wells. Virus inhibition was determined by comparing the cell death of reagent-exposed cells with cell death of control cells only receiving virus. The 50%inhibitory concentration (IC50) was determined through a series of two-fold dilutions and calculation by linear regression analysis.

HSV-2 = HSV-2 inhibition in Vero cells (PrestoBlue, compound and virus added simultaneously); type: cell-based, herpes simplex virus type 2; settings: for Percent Inhibition of HSV-2: ± standard error
Description: as §1, §2, §3

[2] = Cytotoxicity on Vero cells (PrestoBlue cell viability assay); type: cell-based; settings: African green monkey, read-out: Percent Cell Viability; for viability at 48 h, 500 μM: 20(S)-Rg3 500 μM
[3] = as above; type: cell-based; settings: African green monkey
Description: as §2, §3

Vero cells = experiment: as above; type: cell-based
Description: as §2, §3

HSV-1 [4] = experiment: Plaque reduction of HSV-1 on Vero cell monolayer; type: cell-based, Herpes simplex virus type 1 (MacIntyre strain); settings: valacyclovir 16 μM, 20(S)-Rg3 50 μM; for Number of Plaques: approximately 50 PFU/well, 48 h, ± standard error; for Percent Reduction (plaques of HSV-1): compared to control
Description: as §1
The plaque assay procedure also was used to evaluate the percent plaque reduction; the only procedural change was that a constant virus concentration was used (50 PFU/well). Plaque reduction was measured by comparing the control (virus only), with valacyclovir (16 µM) with virus or 20(S)-Rg3 (50 µM) with virus. Sample wells were evaluated in quadruplicate. Following the 2 h virus adsorption, the methylcellulose-medium containing the same concentrations of valacyclovir or 20(S)-Rg3 was added to the appropriate wells. After 48 h, plaques were fixed, stained and counted.

HSV-1 [5] = experiment: Time studies of HSV-1 inhibition (PrestoBlue); type: cell-based, Herpes simplex virus type 1 (MacIntyre strain); settings: for Percent Inhibition of HSV-1: 20(S)-Rg3 50 μM
Description: For virus inhibition studies described above, reagent 20(S)-Rg3 and virus were added to cells simultaneously. In an attempt to evaluate the potential mode of action of 20(S)-Rg3, various combinations of valacyclovir, 20(S)-Rg3 and HSV-1 were tested at different time periods. The following combinations were evaluated at both one hour and four hours:
• ● Virus applied to cells first (for one hour or four hours), followed by addition of valacyclovir, 20(S)-Rg3 or both valacyclovir and 20(S)-Rg3 to the cells • ● Valacyclovir or 20(S)-Rg3 or both valacyclovir and 20(S)-Rg3 applied to cells first (for one or four hours), followed by virus • ● Valacyclovir or 20(S)-Rg3 incubated together with virus first for one or four hours then added to cells
All procedures described for evaluation of virus inhibition were followed in identical fashion as outlined for the PrestoBlue procedure except valacyclovir was used at a constant concentration of 16 µM and 20(S)-Rg3 at 50 µM.

PC12 cells = settings: cited from earlier work
[6] = tested on: human carcinoma cells KB V20C; settings: cited from earlier work
normal WI 38 cells = tested on: normal WI 38 cells; parameters: method as in PMID 18365686; settings: 120 μM; cited from earlier work
[7] = parameters: method as in New Drug Application #20-487/S-007, GlaxoSmithKline; settings: ref New Drug Application #20-487/S-007, GlaxoSmithKline; cited from earlier work
[8] = each compound at its non-toxic concentration (Table 1 c1), MOI 0.1, value in parentheses = higher cell death than virus-alone control

20(S)-Rh2
Percent Inhibition of HSV-1 (HSV-1 [1]; [8]): 46.2%

CC(C)=CCC[C@@](C)(O)C1CC[C@]2(C)C1C(O)CC1C3(C)CCC(OC4OC(CO)C(O)C(O)C4OC4OC(CO)C(O)C(O)C4O)C(C)(C)C3CCC12C (stereo partly drawn) [20(R)-Rg3]
Percent Inhibition of HSV-1 (HSV-1 [1]; [8]): 22.7%

CC(C)=CCC[C@@](C)(O)C1CC[C@]2(C)C1C(O)CC1C3(C)CCC(O)C(C)(C)C3CCC12C (stereo partly drawn) [20(R)-protopanaxadiol]
Percent Inhibition of HSV-1 (HSV-1 [1]; [8]): 14.4%

CC(C)=CCC[C@](C)(O)C1CC[C@]2(C)C1C(O)CC1C3(C)CCC(OC4OC(CO)C(O)C(O)C4OC4OC(CO)C(O)C(O)C4O)C(C)(C)C3CCC12C (stereo partly drawn) [20(S)-Rg3, Ginsenoside 20(S)-Rg3]
Percent Inhibition of HSV-2 (HSV-2; 20(S)-Rg3 25 μM): 14.3 ± 3.3% | Percent Inhibition of HSV-2 (HSV-2; 20(S)-Rg3 50 μM): 80% and 81.7 ± 10.3% | Percent Inhibition of HSV-2 (HSV-2; 20(S)-Rg3 100 μM): 114.7 ± 6.7% | IC50 (HSV-2; Human alphaherpesvirus 2, two-fold dilutions, linear regression, Vero cells, read-out: IC50 against HSV-2): ~35 µM | viability at 48 h, 125 μM ([2]; 20(S)-Rg3 125 μM, parentheses = greater proliferation or metabolic activity than untreated cells): 122% | viability at 48 h, 250 μM ([2]; 20(S)-Rg3 250 μM, parentheses = greater proliferation or metabolic activity than untreated cells): 129% | viability at 48 h, 500 μM [2]: 17.7 ± 14.7% | IC50 at 48 h [3]: ~400 µM | viability at 48 h, 50 μM ([3]; 20(S)-Rg3 50 μM, parentheses = greater proliferation or metabolic activity than untreated cells, read-out: Percent Cell Viability): 113% | viability at 48 h, 100 μM ([3]; 20(S)-Rg3 100 μM, parentheses = greater proliferation or metabolic activity than untreated cells, read-out: Percent Cell Viability): 114% | selectivity (Vero cells; Vero cell toxicity IC50 versus antiviral IC50 (HSV-1 and HSV-2)): 11 fold | Number of Plaques (HSV-1 [4]): 1.5 ± 0.3 | Percent Reduction (plaques of HSV-1) (HSV-1 [4]): 97.3% | Percent Inhibition of HSV-1 (HSV-1 [5]; cells treated with compound 4 h prior to HSV-1 addition): 90.1 ± 11.1% | Percent Inhibition of HSV-1 (HSV-1 [5]; virus present on cells 4 h prior to compound addition): 50.7 ± 4.4% | Percent Inhibition of HSV-1 (HSV-1 [1]; 20(S)-Rg3 25 μM, ± standard error): 11.0 ± 2.6% | Percent Inhibition of HSV-1 (HSV-1 [1]; 20(S)-Rg3 50 μM, ± standard error): 80% and 82.3 ± 3.5% | Percent Inhibition of HSV-1 (HSV-1 [1]; 20(S)-Rg3 100 μM, ± standard error): 90.3 ± 9.9% | IC50 (HSV-1 [1]): ~35 µM | Percent Inhibition of HSV-1 (HSV-1 [1]; [8]): 90.3%

CC(C)=CCC[C@](C)(O)C1CC[C@]2(C)C1C(O)CC1C3(C)CCC(O)C(C)(C)C3CCC12C (stereo partly drawn) [20(S)-protopanaxadiol]
concentration not toxic for PC12 cells (PC12 cells): 20 µM

CC(C)=CCC[C@](C)(O[C@@H]1O[C@H](CO[C@@H]2O[C@H](CO)[C@@H](O)[C@H](O)[C@H]2O)[C@@H](O)[C@H](O)[C@H]1O)[C@H]1CC[C@]2(C)[C@@H]1[C@H](O)C[C@@H]1[C@@]3(C)CC[C@H](O[C@@H]4O[C@H](CO)[C@@H](O)[C@H](O)[C@H]4O[C@@H]4O[C@H](CO)[C@@H](O)[C@H](O)[C@H]4O)C(C)(C)[C@@H]3CC[C@]12C [Rb1]
Percent Inhibition of HSV-1 (HSV-1 [1]; [8]): 23% and 23.3%

CC(C)=CCC[C@](C)(O[C@@H]1O[C@H](CO[C@@H]2OC[C@H](O)[C@H](O)[C@H]2O)[C@@H](O)[C@H](O)[C@H]1O)[C@H]1CC[C@]2(C)[C@@H]1[C@H](O)C[C@@H]1[C@@]3(C)CC[C@H](O[C@@H]4O[C@H](CO)[C@@H](O)[C@H](O)[C@H]4O[C@@H]4O[C@H](CO)[C@@H](O)[C@H](O)[C@H]4O)C(C)(C)[C@@H]3CC[C@]12C [Rb2]
Percent Inhibition of HSV-1 (HSV-1 [1]; [8]): 26.4%

CC(C)=CCC[C@](C)(O[C@@H]1O[C@H](CO[C@@H]2OC[C@@H](O)[C@H](O)[C@H]2O)[C@@H](O)[C@H](O)[C@H]1O)[C@H]1CC[C@]2(C)[C@@H]1[C@H](O)C[C@@H]1[C@@]3(C)CC[C@H](O[C@@H]4O[C@H](CO)[C@@H](O)[C@H](O)[C@H]4O[C@@H]4O[C@H](CO)[C@@H](O)[C@H](O)[C@H]4O)C(C)(C)[C@@H]3CC[C@]12C [Rb3]
Percent Inhibition of HSV-1 (HSV-1 [1]; [8]): 30.9%

CC(C)=CCC[C@](C)(O[C@@H]1O[C@H](CO[C@@H]2O[C@@H](CO)[C@H](O)[C@H]2O)[C@@H](O)[C@H](O)[C@H]1O)[C@H]1CC[C@]2(C)[C@@H]1[C@H](O)C[C@@H]1[C@@]3(C)CC[C@H](O[C@@H]4O[C@H](CO)[C@@H](O)[C@H](O)[C@H]4O[C@@H]4O[C@H](CO)[C@@H](O)[C@H](O)[C@H]4O)C(C)(C)[C@@H]3CC[C@]12C [Rc]
Percent Inhibition of HSV-1 (HSV-1 [1]; [8]): 28.6%

CC(C)=CCC[C@](C)(O[C@@H]1O[C@H](CO)[C@@H](O)[C@H](O)[C@H]1O)[C@H]1CC[C@]2(C)[C@@H]1[C@H](O)C[C@@H]1[C@@]3(C)CC[C@H](O[C@@H]4O[C@H](CO)[C@@H](O)[C@H](O)[C@H]4O[C@@H]4O[C@H](CO)[C@@H](O)[C@H](O)[C@H]4O)C(C)(C)[C@@H]3CC[C@]12C [Rd]
Percent Inhibition of HSV-1 (HSV-1 [1]; [8]): 36.1%

CC(C)=CCC[C@](C)(O[C@@H]1O[C@H](CO)[C@@H](O)[C@H](O)[C@H]1O)[C@H]1CC[C@]2(C)[C@@H]1[C@H](O)C[C@@H]1[C@@]3(C)CC[C@H](O)C(C)(C)[C@@H]3[C@@H](O[C@@H]3O[C@H](CO)[C@@H](O)[C@H](O)[C@H]3O[C@@H]3O[C@@H](C)[C@H](O)[C@@H](O)[C@H]3O)C[C@]12C [Re]
Percent Inhibition of HSV-1 (HSV-1 [1]; [8]): 26.7%

CC(C)=CCC[C@](C)(O[C@@H]1O[C@H](CO)[C@@H](O)[C@H](O)[C@H]1O)[C@H]1CC[C@]2(C)[C@@H]1[C@H](O)C[C@@H]1[C@@]3(C)CC[C@H](O)C(C)(C)[C@@H]3[C@@H](O[C@@H]3O[C@H](CO)[C@@H](O)[C@H](O)[C@H]3O)C[C@]12C [Rg1]
Percent Inhibition of HSV-1 (HSV-1 [1]; [8]): 13.2%

CC(C)=CCCC(C)(O)C1CC[C@]2(C)C1C(O)CC1C3(C)CCC(OC4OC(CO)C(O)C(O)C4OC4OC(CO)C(O)C(O)C4O)C(C)(C)C3CCC12C (some centres unmarked) [Rg3, ginsenoside Rg3]
viability at 48 h, 500 μM [2]: < 20% | cytotoxic concentration [6]: 120 µM | effect on normal WI 38 cells (normal WI 38 cells): no effect

CC(C)[C@H](N)C(=O)OCCOCn1cnc2c(=O)[nH]c(N)nc21 [Valacyclovir, reference compound]
viability at 48 h, 16 μM [3]: ~99% | percent cell death (Vero cells; African green monkey, 48 h, 16 μM): 1.2 ± 0.4% | Number of Plaques (HSV-1 [4]): 8.1 ± 1.1 | Percent Reduction (plaques of HSV-1) (HSV-1 [4]): 85.7% | reported IC50 ranges [7]: 0.02 to 13.5 µg/mL | inhibition at 16 µM (HSV-1 [5]; Human alphaherpesvirus 1, HSV-1 incubated together with valacyclovir (16 μM) 0 to 4 h prior to addition to cells, read-out: percent inhibition of HSV-1): 52.3 to 54.7% | IC50 (HSV-1 [1]): 13.2 µM
